Key:
Assay type in all cases: cell-based, Human
U2OS cells [1] = assay: DR-GFP assay of HR-mediated repair
Description: (§1) Human U2OS, HCT116, hTERT RPE-1, HEK293T, HeLa, U87, T98G, A2780, and human skin fibroblast cells (GM08398 and GM18366) were grown in DMEM media supplemented with 10% bovine calf serum, penicillin/streptomycin and non-essential amino acids. SV40 large T antigen transformed hTERT RPE-1 cells were generated by infecting hTERT RPE-1 cells with a SV40 large T antigen (SV40 LT)-expressing retrovirus and were selected using 500 μg/ml G418. The stable SV40 large T antigen transformed hTERT RPE-1 cell line was then maintained in culture media supplemented 500 μg/ml G418. For chronic treatment with ATR inhibitor (ATRi, VE-821) or ATM inhibitor (ATMi, KU-55933), cells were maintained in media with 5 μM ATR or ATM inhibitor respectively for 8 days before cells were subjected to western blot analysis, proteomic analysis, DR-GFP/EJ5-GFP assay or immunofluorescent staining. For CHK1 inhibitor (UCN-01), cells were treated for 5 days with 0.2 μM of inhibitor before the analysis. Primary human fibroblast cells from control subjects (GM08398) and patients with Seckel syndrome (GM18366, ATR-defective) were obtained from Coriell Institute for Medical Research, Camden, N.J.
For the DR-GFP assay, cells (U2OS, HCT116, hTERT RPE-1, HEK293T, HeLa, U87, T98G, A2780, 293-T-REX-E2F6 cells and SV40 large T antigen transformed hTERT RPE-1) were transfected with the mCherry plasmid or DR-GFP reporter plasmid (pDR-GFP; addgene plasmid 26475) together with a plasmid coding for I-SceI (pCBASceI; addgene plasmid 26477) or DR-GFP reporter plasmid together with an empty plasmid pCAGGS. Two days after transfection, cells were trypsinized, resuspended in PBS and then analyzed by flow cytometry using FACSAria Fusion or Accuri C6 cytometer (BD). In each experiment, the percentage of GFP-positive cells from the sample transfected with empty plasmid pCAGGS was subtracted from the percentage of GFP-positive cells in the sample transfected with I-SceI. The GFP percentage was then normalized by the mCherry transfection efficiency. Each graph was plotted based on at least 3 independent experiments showing mean±SEM (N≥3). For the EJ5-GFP assay, EJ5-GFP reporter plasmid (pimEJ5GFP, addgene plasmid 44026) was used instead of DR-GFP reporter plasmid and the assay was performed as described for DR-GFP assay.

HCT116 cells = assay: Western blot after chronic CHK1i; details: chronic CHK1 inhibition
Description: (§2) Cells were harvested and lysed in modified radioimmunoprecipitation assay (RIPA) buffer (50 mM Tris-HCl pH 7.5, 150 mM NaCl, 1% tergitol, 0.25% sodium deoxycholate, 5 mM EDTA) supplemented with Complete EDTA-free protease inhibitor cocktail (Roche), 1 mM PMSF, 5 mM sodium fluoride, 10 mM β-glycerol-phosphate and 0.4 mM sodium orthovanadate. Whole cell lysates were cleared with 5 minute centrifugation at 13,000 rpm at 4° C. and mixed with 3×SDS sample buffer (bromophenol blue, stacking gel buffer, 50% glycerol, 3% SDS and 60 mM DTT). After being resolved on SDS-PAGE gels, proteins were then transferred onto polyvinylidene difluoride (PVDF) membranes and detected with designated antibodies.

U2OS cells [2] = assay: Cell cycle analysis (propidium iodide, flow cytometry); details: CHK1i 0.2 μM, 5 days
Description: Cells were harvested by standard trypsinization and fixed with 70% ethanol. After fixation, cells from each sample were resuspended in PBS, permeabilized using 0.1% Triton X-100 and treated with RNase A (0.8 mg/ml). Then cells were stained with propidium iodide and analyzed by flow cytometry using FACSAria Fusion (BD) or Accuri C6 cytometer (BD) to determine the fraction of cells in different stages of the cell cycle.

U2OS cells [3] = assay: Immunoblotting of HR factor abundance; details: CHK1 inhibitor 0.2 μM, 5 days
Description: FIG. 5A is a schematic diagram of the SILAC/MS experiment. FIG. 5B is a quadrant diagram of the SILAC/MS experiment. Each dot represents a different identified protein. Proteins with abundance reduced two-fold or more after ATRi treatment are shown in the upper-left corner (white quadrant). FIG. 5C is a WB analysis of U2OS cells after 8 days of chronic treatment with 5 μM of ATRi or ATMi. FIG. 5D is a time course WB analysis of U2OS cells during chronic treatment with 5 μM ATRi. FIG. 5E is a WB analysis of U2OS cells at distinct cell cycle stages. Cells were treated with 1 mM hydroxyurea (HU) or 50 ng/ml nocodazole (Noc) for 24 hours. HU treated cells were released for 2.5 hours in HU-free media. FIG. 5F is a WB analysis of U2OS cells untreated or treated for 8 days with 5 μM ATRi.
as §1, §2

U2OS cells [4] = assay: Real time PCR of mRNA levels; details: ATRi 5 μM 8 days or CHK1i 0.2 μM 5 days, normalized to GAPDH
Excerpt: FIG. 9B is a bar graph showing the analysis of HR-mediated repair using the DR-GFP system. Relative fold change of GFP positive U2OS cells treated with CHK1i compared to DMSO treatment control. (Error bars=SEM, N=4, ****P-value<0.0001; one sample-t-test was used for the statistical analysis). FIGS. 9C-9D show a histogram showing representative FACS data (FIG. 9C) and a bar graph showing quantitation of G1, S and G2/M population for cell cycle analysis of CHK1i treated cells (FIG. 9D) (Error bars=SD, N=3). FIG. 9E are bar graphs showing real time PCR analysis of total RNA extracted from U2OS cells treated with DMSO, ATRi (5 μM for 8 days) or CHK1i (0.2 μM for 5 days). Values were normalized to GAPDH mRNA levels. (Error bars=SD, N=3). FIG. 9F is a schematic diagram showing a proposed model of how E2F transcription is regulated through ATR-CHK1 signaling. […] FIG. 9H is a bar graph showing DR-GFP analysis of 293-T-REX-E2F6 cells after 8 days of treatment with DMSO or doxycycline. (Error bars=SEM, N=4). FIG. 9I is a histogram showing cell cycle analysis of 293-T-REX-E2F6 cells after 8 days of treatment with DMSO or doxycycline. FIG. 9J is a schematic diagram showing a model depicting multiple roles of ATR in the control of HR capacity.
Cells cultured from 10 cm dish were collected and lysed in 1 ml of TRIzol (Invitrogen). Chloroform was added to the lysed sample to separate RNA. Separated RNA was precipitated by isopropyl alcohol, followed by two washes with 75% ethanol. 1 μg of extracted RNA from each sample was then reverse transcribed with Bio-Rad iScript cDNA synthesis kit. The samples (˜100 ng) were analyzed in a Roche 480 light cycler in a total of 15 μl containing SYBR green mix and primers. The values were calculated using “absolute quantification/2nd derivative max” in lightcycler 480 program and then normalized to the level of GAPDH.

| Compound | HR-mediated repair efficiency (DR-GFP, GFP positive cells over DMSO) (U2OS cells [1]; 5 μM, chronic 8 days) | HR efficiency (DR-GFP) (U2OS cells [1]; CHK1i 0.2 μM, 5 days) | Level of E2F1 and abundance of other HR proteins (WB) (HCT116 cells) | Relative number of S phase cells (U2OS cells [2]) | Abundance of BRCA1, RAD51, RRM2 and E2F1 (WB) (U2OS cells [3]) | mRNA levels of BRCA1 and RAD51 (U2OS cells [4]) |
| --- | --- | --- | --- | --- | --- | --- |
| O=c1cc(-c2cccc3c2Sc2ccccc2S3)oc(N2CCOCC2)c1 [ATMi, KU-55933] | did not result in major changes in HR-mediated repair efficiency |  |  |  |  |  |
| CN[C@@H]1C[C@H]2O[C@@](C)([C@@H]1OC)n1c3ccccc3c3c4c(c5c6ccccc6n2c5c31)C(=O)N[C@@H]4O [CHK1i, UCN-01] |  | sharp decrease in HR efficiency | did not lower the level of E2F1 nor the abundance of other HR proteins | increase in the relative number of S phase cells | severely reduced | reduction in the mRNA levels of BRCA1 and RAD51 |
